Results on 25 compounds are retold here after US20200069691A1, “HETEROCYCLIC COMPOUNDS AS HIV PROTEASE INHIBITORS” (Merck Sharp & Dohme Corp., priority 2016, published 2020).

The target in the test is T1, wild-type HIV-1 protease (Human immunodeficiency virus type 1 group M subtype B, UniProt P04585).
T1 construct: Escherichia coli expressed wild-type HIV-1 protease protein
Briefly: Assay for Inhibition of Microbial Expressed HIV Protease (peptide substrate cleavage, LC-MS/MS readout). Type of test: biochemical. The conditions noted are these: E. coli expressed wild-type HIV-1 protease, mean of at least two independent experiments, read-out: HIV Pr Enzyme HIV1 PR IC50. The method in brief:
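E. coli-expressed wild-type HIV-1 protease ([…]) was preincubated with inhibitor 30 min at room temperature in pH 5.5 acetate buffer (100 mM NaCl, 0.1% BSA). Then 400 μM octapeptide substrate was added and reacted 1 h at 30 °C; inhibition came from LC-MS/MS product peak areas, mean of ≥2 experiments.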

Turning to `N=C1NC(c2ccccc2)(c2ccccc2)C(=O)N1Cc1cccc(C(=O)N2CCn3cc(C(F)(F)F)nc3C2)c1` [Compound 349, 2-imino-5,5-diphenyl-3-(3-{[2-(trifluoromethyl)-5,6-dihydroimidazo-[1,2-a]pyrazin-7(8H)-yl]carbonyl}-benzyl)imidazolidin-4-one], the IC50 was 84.2 nM.
Under `CN1CCN(C(=O)c2cc(CN3C(=N)NC(c4ccccc4)(c4ccccc4)C3=O)ccc2C(F)(F)F)CC1=O` [Compound 153, 4-({5-[(2-imino-5-oxo-4,4-diphenylimidazolidin-1-yl)methyl]-2-(trifluoromethyl)phenyl}-carbonyl)-1-methylpiperazin-2-one] stands 10.1 nM.
Under `N=C1N[C@](CCCC(F)(F)F)(c2ccc(F)cc2)C(=O)N1Cc1ccc(C(F)(F)F)c(C(=O)N2Cc3cnc(N4CCCC4)nc3C2)c1` [Compound 106, (5R)-5-(4-fluorophenyl)-2-imino-3-{3-[(2-pyrrolidin-1-yl-5,7-dihydro-6H-pyrrolo[3,4-d]pyrimidin-6-yl)carbonyl]-4-(trifluoromethyl)-benzyl}-5-(4,4,4-trifluorobutyl)-imidazolidin-4-one] stands 25.4 nM.
Under `CCCC1(c2ccccc2)NC(=N)N(Cc2cccc(C(=O)N3Cc4ccccc4C3)c2)C1=O` (stereo not shown) [Compound 236, 3-[3-(1,3-dihydro-2H-isoindol-2-ylcarbonyl)benzyl]-2-imino-5-phenyl-5-propylimidazolidin-4-one] stands 14.4 nM.
`COC(=O)Nc1ncc2c(n1)CN(C(=O)c1cccc(CN3C(=N)NC(c4ccc(F)cc4)(c4ccc(F)cc4)C3=O)c1)C2` [Compound 189, methyl {6-[(3-{[4,4-bis(4-fluorophenyl)-2-imino-5-oxoimidazolidin-1-yl]methyl}phenyl)carbonyl]-6,7-dihydro-5H-pyrrolo[3,4-d]pyrimidin-2-yl}carbamate]: the concentration for half-maximal inhibition (IC50) was determined as 3.83 nM.
In the case of `N=C1N[C@](CCC2CC2)(c2ccc(F)cc2)C(=O)N1[C@@H]1CCOc2ccc(C(=O)N3Cc4nccnc4C3)cc21` [Compound 107, (5R)-5-(2-cyclopropylethyl)-3-[(4R)-6-(5,7-dihydro-6H-pyrrolo-[3,4-b]pyrazin-6-ylcarbonyl)-3,4-dihydro-2H-chromen-4-yl]-5-(4-fluorophenyl)-2-iminoimidazolidin-4-one] it was 25.9 nM; in that of `N=C1N[C@](CCCC(F)(F)F)(c2ccc(F)cc2)C(=O)N1Cc1ccc(C(F)(F)F)c(C(=O)N2Cc3cnc(Cl)nc3C2)c1` [Compound 35, (5R)-3-{3-[(2-chloro-5,7-dihydro-6H-pyrrolo[3,4-d]pyrimidin-6-yl)carbonyl]-4-(trifluoromethyl)-benzyl}-5-(4-fluorophenyl)-2-imino-5-(4,4,4-trifluorobutyl)-imidazolidin-4-one], 3.42 nM; in that of `N=C1N[C@](CCCC(F)(F)F)(c2ccc(F)cc2)C(=O)N1Cc1ccc(C(F)(F)F)c(C(=O)N2Cc3cnc(-c4cc(F)cc(F)c4)nc3C2)c1` [Compound 121, (5R)-3-[3-{[2-(3,5-difluorophenyl)-5,7-dihydro-6H-pyrrolo[3,4-d]pyrimidin-6-yl]carbonyl}-4-(trifluoromethyl)benzyl]-5-(4-fluorophenyl)-2-imino-5-(4,4,4-trifluorobutyl)imidazolidin-4-one], 44.3 nM.
In the case of `N=C1NC(c2ccc(F)cc2)(c2ccc(F)cc2)C(=O)N1Cc1cccc(C(=O)N2CCC(n3c(=O)[nH]c4ccc(F)nc43)CC2)c1` [Compound 276, 3-{1-[(3-{[4,4-bis(4-fluorophenyl)-2-imino-5-oxoimidazolidin-1-yl]methyl}phenyl)carbonyl]piperidin-4-yl}-5-fluoro-1,3-dihydro-2H-imidazo[4,5-b]pyridin-2-one] it was 29.6 nM; in that of `N=C1NC(c2ccc(F)cc2)(c2ccc(F)cc2)C(=O)N1Cc1cccc(C(=O)N2Cc3cncnc3C2)c1` [Compound 215, 3-[3-(5,7-dihydro-6H-pyrrolo[3,4-d]pyrimidin-6-ylcarbonyl)benzyl]-5,5-bis(4-fluorophenyl)-2-iminoimidazolidin-4-one], 23 nM.
Take `N=C1N[C@](CCCC(F)(F)F)(c2ccc(F)cc2)C(=O)N1Cc1ccc(C(F)(F)F)c(C(=O)N2Cc3cnc(-c4cnc5[nH]ccc5c4)nc3C2)c1` [Compound 39, (5R)-5-(4-fluorophenyl)-2-imino-3-[3-{[2-(1H-pyrrolo[2,3-b]pyridin-5-yl)-5,7-dihydro-6H-pyrrolo[3,4-d]pyrimidin-6-yl]carbonyl}-4-(trifluoromethyl)benzyl]-5-(4,4,4-trifluorobutyl)imidazolidin-4-one]: the half-maximal inhibitory concentration (IC50) was found to be 4.1 nM.
Under `COC(=O)N1CCN(C(=O)c2cc(F)cc(CN3C(=N)NC(c4ccccc4)(c4ccccc4)C3=O)c2)CC1` [Compound 298, methyl 4-({3-fluoro-5-[(2-imino-5-oxo-4,4-diphenylimidazolidin-1-yl)methyl]phenyl}carbonyl) piperazine-1-carboxylate] stands 43.5 nM.
With `N=C1NC(c2ccccc2)(c2ccccc2)C(=O)N1Cc1cccc(C(=O)N2CCN(C(=O)OCc3ccccc3)CC2)c1` [Compound 260, benzyl 4-({3-[(2-imino-5-oxo-4,4-diphenylimidazolidin-1-yl)methyl]phenyl}carbonyl) piperazine-1-carboxylate], the IC50 came out at 23.2 nM.
In the case of `CC(C)CCC1(c2ccc(F)cc2)NC(=N)N(Cc2ccc(C(F)(F)F)c(C(=O)N3Cc4nc(-c5ccccc5)oc4C3)c2)C1=O` (stereo not shown) [Compound 158, 5-(4-fluorophenyl)-2-imino-5-(3-methylbutyl)-3-{3-[(2-phenyl-4,6-dihydro-5H-pyrrolo[3,4-d][1,3]oxazol-5-yl)carbonyl]-4-(trifluoromethyl)benzyl} imidazolidin-4-one] it was 15.8 nM; in that of `N=C1NC(c2ccc(F)cc2)(c2cccc(-c3cccnc3)c2)C(=O)N1Cc1cccc(C(=O)N2Cc3ccccc3C2)c1` (stereo not shown) [Compound 284, 3-[3-(1,3-dihydro-2H-isoindol-2-ylcarbonyl)benzyl]-5-(4-fluorophenyl)-2-imino-5-(3-pyridin-3-ylphenyl)imidazolidin-4-one], 32.7 nM; in that of `CN1CCN(C(=O)c2cc(CN3C(=N)NC(c4ccccc4)(c4ccccc4)C3=O)ccc2Cl)CC1=O` [Compound 378, 4-({2-chloro-5-[(2-imino-5-oxo-4,4-diphenylimidazolidin-1-yl)methyl]phenyl}carbonyl)-1-methylpiperazin-2-one], 10.6 nM.
Consider `N=C1NC(c2ccccc2)(c2ccccc2)C(=O)N1Cc1cccc(C(=O)N2CCN(c3ccccn3)CC2)c1` [Compound 307, 2-imino-5,5-diphenyl-3-{3-[(4-pyridin-2-ylpiperazin-1-yl)carbonyl]benzyl}-imidazolidin-4-one], for which the IC50 was 47.7 nM.
In the case of `N=C1N[C@](CCCC(F)(F)F)(c2ccc(F)cc2)C(=O)N1Cc1ccc(C(F)(F)F)c(C(=O)N2Cc3cnc(-c4cccc5[nH]ncc45)nc3C2)c1` [Compound 22, (5R)-5-(4-fluorophenyl)-2-imino-3-[3-{[2-(1H-indazol-4-yl)-5,7-dihydro-6H-pyirolo[3,4-d]pyrimidin-6-yl]carbonyl}-4-(trifluoromethyl)benzyl]-5-(4,4,4-trifluorobutyl)imidazolidin-4-one] it was 2.32 nM.
`CN(C)C(=O)N1CCN(C(=O)c2cccc(CN3C(=N)NC(c4ccccc4)(c4ccccc4)C3=O)c2)CC1` [Compound 357, 4-({3-[(2-imino-5-oxo-4,4-diphenylimidazolidin-1-yl)methyl]phenyl}carbonyl)-N,N-dimethylpiperazine-1-carboxamide]: the IC50 was 91.2 nM.
Under `CC(C)CC1(c2ccccc2)NC(=N)N(Cc2cccc(C(=O)N3CCN(c4ccccn4)CC3)c2)C1=O` (stereo not shown) [Compound 321, 2-imino-5-(2-methylpropyl)-5-phenyl-3-{3-[(4-pyridin-2-ylpiperazin-1-yl)carbonyl]benzyl} imidazolidin-4-one] stands 56.8 nM.
As to `CN1CCN(c2cncc(-c3ncc4c(n3)CN(C(=O)c3cc(CN5C(=N)N[C@](CCCC(F)(F)F)(c6ccc(F)cc6)C5=O)ccc3C(F)(F)F)C4)c2)CC1` [Compound 25, (5R)-5-(4-fluorophenyl)-2-imino-3-[3-({2-[5-(4-methylpiperazin-1-yl)pyridin-3-yl]-5,7-dihydro-6H-pyirolo[3,4-d]pyrimidin-6-yl}carbonyl)-4-(trifluoromethyl)benzyl]-5-(4,4,4-trifluorobutyl)imidazolidin-4-one], the IC50 worked out at 2.59 nM.
Under `CSc1nnc2n1CCN(C(=O)c1cccc(CN3C(=N)NC(c4ccccc4)(c4ccccc4)C3=O)c1)C2` [Compound 246, 2-imino-3-(3-{[3-(methylsulfanyl)-5,6-dihydro[1,2,4]triazolo[4,3-a]pyrazin-7(8H)-yl]carbonyl}benzyl)-5,5-diphenylimidazolidin-4-one] stands 17.5 nM; under `Cc1cc2c(cn1)CN(C(=O)c1cccc(CN3C(=N)NC(c4ccc(F)cc4)(c4ccc(F)cc4)C3=O)c1)C2` [Compound 226, 5,5-bis(4-fluorophenyl)-2-imino-3-{3-[(6-methyl-1,3-dihydro-2H-pyrrolo[3,4-c]pyridin-2-yl)carbonyl]benzyl} imidazolidin-4-one], 12.4 nM.
On to `CCOC(=O)NC1CCN(C(=O)c2cc(F)cc(CN3C(=N)NC(c4ccccc4)(c4ccccc4)C3=O)c2)CC1` [Compound 344, ethyl [1-({3-fluoro-5-[(2-imino-5-oxo-4,4-diphenylimidazolidin-1-yl)methyl]phenyl}carbonyl)piperidin-4-yl]carbamate], for which the IC50 turned out to be 81.4 nM.
Regarding `N=C1NC(c2ccccc2)(c2ccccc2)C(=O)N1Cc1cc(C(=O)N2Cc3cncnc3C2)cs1` [Compound 408, 3-{[4-(5,7-dihydro-6H-pyrrolo[3,4-d]pyrimidin-6-ylcarbonyl)thiophen-2-yl]methyl}-2-imino-5,5-diphenylimidazolidin-4-one], the concentration for half-maximal inhibition (IC50) worked out at 80.5 nM.
